Values joined by “and” are separate entries in the source; they are usually repeats but may differ in a detail not shown here. Equal values may be shown once.
Legend:
BCL-2 = biological target: T1, BCL-2 (Homo sapiens, UniProt P10415); assay: BCL-2 degradation by immunoblot in 293T cells; assay type: cell-based; settings: for Dmax: HEK-293T
T1 construct: endogenous in cells
How it was run: (§1)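 Immunoblot of 293T cell lysates (RIPA, 20–40 μg protein per lane) with β-actin as loading control and chemiluminescent detection. Bands quantified by densitometry and normalized; DC50 and Dmax derived from the quantified blots, n = 3 biologically independent experiments.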

BCL-xL = biological target: T2, BCL-xL (Homo sapiens, UniProt Q07817); assay: BCL-xL degradation by immunoblot in 293T cells; assay type: cell-based; settings: for DC50: 293T cells, four concentrations, 16 h, Fig. 2b, read-out: BCL-xL DC50; for Dmax: HEK-293T
T2 construct: endogenous in cells
T2 sequence (Q07817 whole entry): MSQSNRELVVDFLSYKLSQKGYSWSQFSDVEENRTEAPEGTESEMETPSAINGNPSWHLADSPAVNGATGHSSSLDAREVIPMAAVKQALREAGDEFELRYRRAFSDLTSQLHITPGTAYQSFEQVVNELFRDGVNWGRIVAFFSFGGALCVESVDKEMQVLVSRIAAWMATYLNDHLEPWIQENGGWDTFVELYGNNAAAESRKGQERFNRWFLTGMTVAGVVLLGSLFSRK
How it was run: as §1

[1] = biological target: T3, BCL-xL/PROTAC/VHL-ELOC-ELOB (VCB) ternary complex (Homo sapiens, UniProt P40337+Q07817); assay: AlphaLISA ternary complex formation, cell-free, BCL-xL; assay type: binding; settings: for in vitro ternary complex formation with BCL-xL (in words): AlphaLISA, cell-free, Fig. 2c, 3e
T3 construct: pGEX-6P-1-VHL(54-213) (pDL2200) was constructed through Gibson assembly method; made in house; host or cells: bacterial culture (LB broth, IPTG induction)
T3 sequence (Q07817 1-212 limits assumed): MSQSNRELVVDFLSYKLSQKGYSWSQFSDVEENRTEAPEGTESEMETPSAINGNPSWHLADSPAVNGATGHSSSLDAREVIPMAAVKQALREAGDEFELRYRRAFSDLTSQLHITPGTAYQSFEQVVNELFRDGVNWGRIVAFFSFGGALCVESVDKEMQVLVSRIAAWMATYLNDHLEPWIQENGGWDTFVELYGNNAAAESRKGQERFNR
T3 sequence (P40337 54-213 limits assumed): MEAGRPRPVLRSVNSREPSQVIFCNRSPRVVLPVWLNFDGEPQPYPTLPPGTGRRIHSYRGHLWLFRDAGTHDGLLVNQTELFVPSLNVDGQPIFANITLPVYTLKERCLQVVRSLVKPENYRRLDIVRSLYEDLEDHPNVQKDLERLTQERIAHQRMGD
T3 sequence (Q15369 17-112 partner limits assumed): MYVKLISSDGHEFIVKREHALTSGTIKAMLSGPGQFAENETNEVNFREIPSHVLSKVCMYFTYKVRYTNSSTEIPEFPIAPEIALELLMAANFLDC
T3 sequence (Q15370 whole entry partner): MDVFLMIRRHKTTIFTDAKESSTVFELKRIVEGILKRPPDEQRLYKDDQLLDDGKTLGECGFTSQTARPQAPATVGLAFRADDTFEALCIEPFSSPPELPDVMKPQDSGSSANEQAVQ
Method: AlphaLISA assay was used to evaluate the in vitro ternary complex formation between target proteins (BCL-xL or BCL-2), PROTAC and E3 ligase (VCB complex). In each well, 5 nM His-tagged BCL-xL or BCL-2 proteins and 5 nM GST-VCB complex was incubated with varying concentrations of compounds in fourfold serial dilutions, to a final volume of 40 µl in a 96-well PCR plate. After incubation at room temperature for 30 min, 5 µl alpha glutathione-donor beads (Cat. No. 6765300, PerkinElmer) were added to each well (20 µg/ml final concentration) and incubated for another 15 min. Thereafter, 5 µL 6× His-acceptor beads were added to each well (20 µg/ml final concentration) and incubated for an additional 45 min at room temperature. Thereafter, 17 µl of each sample was transferred in adjacent wells of a 384-well proxy plate, and the plate was scanned using the Alpha program on Biotek’s Synergy Neo2 multimode plate reader. The data were expressed as average AlphaLISA signal and plotted against different concentrations of compounds using GraphPad Prism 9 software.

[2] = compound 0.191 nM, Fig. 2c raw Alpha reads
[3] = compound 0.763 nM, Fig. 2c raw Alpha reads
[4] = compound 3.052 nM, Fig. 2c raw Alpha reads
[5] = compound 12.207 nM, Fig. 2c raw Alpha reads
[6] = compound 48.828 nM, Fig. 2c raw Alpha reads
[7] = compound 195.31 nM, Fig. 2c raw Alpha reads
[8] = compound 781.25 nM, Fig. 2c raw Alpha reads
[9] = compound 3125 nM, Fig. 2c raw Alpha reads
[10] = compound 12500 nM, Fig. 2c raw Alpha reads
[11] = compound 50000 nM, Fig. 2c raw Alpha reads
[12] = compound 200000 nM, Fig. 2c raw Alpha reads, 2 technical replicates

T1 sequence (P10415 whole entry): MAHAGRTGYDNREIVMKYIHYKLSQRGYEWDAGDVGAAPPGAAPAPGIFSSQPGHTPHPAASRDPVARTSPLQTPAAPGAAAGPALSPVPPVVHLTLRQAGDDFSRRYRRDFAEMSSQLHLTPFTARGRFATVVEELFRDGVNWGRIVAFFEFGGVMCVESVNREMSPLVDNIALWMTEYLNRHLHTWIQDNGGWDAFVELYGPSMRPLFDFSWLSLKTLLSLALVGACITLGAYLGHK

| BCL-2 degradation (in words) (BCL-2; 293T cells, 16 h) | Dmax (BCL-2) | DC50 (BCL-xL) | Dmax (BCL-xL) | AlphaLISA signal, BCL-xL/PROTAC/VCB [1, 2] | AlphaLISA signal, BCL-xL/PROTAC/VCB [1, 3] | AlphaLISA signal, BCL-xL/PROTAC/VCB [1, 4] | AlphaLISA signal, BCL-xL/PROTAC/VCB [1, 5] | AlphaLISA signal, BCL-xL/PROTAC/VCB [1, 6] | AlphaLISA signal, BCL-xL/PROTAC/VCB [1, 7] | AlphaLISA signal, BCL-xL/PROTAC/VCB [1, 8] | AlphaLISA signal, BCL-xL/PROTAC/VCB [1, 9] | AlphaLISA signal, BCL-xL/PROTAC/VCB [1, 10] | AlphaLISA signal, BCL-xL/PROTAC/VCB [1, 11] | AlphaLISA signal, BCL-xL/PROTAC/VCB [1, 12] | in vitro ternary complex formation with BCL-xL (in words) [1] | SMILES | further results |
| --- | --- | --- | --- | --- | --- | --- | --- | --- | --- | --- | --- | --- | --- | --- | --- | --- | --- |
| did not induce BCL-2 degradation | 0% | 20.3 nM | 92% | 16719 and 10405 | 18311 and 16968 | 25910 and 22328 | 86818 and 83277 | 487236 and 509576 | 1016591 and 916263 | 880317 and 910855 | 660864 and 590073 | 241490 and 226854 | 34465 and 29535 | 19406 and 20996 |  | Cc1ncsc1-c1ccc([C@H](C)NC(=O)[C@@H]2C[C@@H](O)CN2C(=O)[C@@H](NC(=O)CCCCCC(=O)N2CCN(CC[C@H](CSc3ccccc3)Nc3ccc(S(=O)(=O)NC(=O)c4ccc(N5CCN(CC6=C(c7ccc(Cl)cc7)CCC(C)(C)C6)CC5)cc4)cc3S(=O)(=O)C(F)(F)F)CC2)C(C)(C)C)cc1 [DT2216] | AlphaLISA signal, BCL-xL/PROTAC/VCB ([1]; compound 0.19 nM, Fig. 3e raw Alpha reads): 24660 and 20115; AlphaLISA signal, BCL-xL/PROTAC/VCB ([1]; compound 0.76 nM, Fig. 3e raw Alpha reads): 36507 and 38317; AlphaLISA signal, BCL-xL/PROTAC/VCB ([1]; compound 3.05 nM, Fig. 3e raw Alpha reads): 66449 and 60221; AlphaLISA signal, BCL-xL/PROTAC/VCB ([1]; compound 12.21 nM, Fig. 3e raw Alpha reads): 409606 and 406374; AlphaLISA signal, BCL-xL/PROTAC/VCB ([1]; compound 48.83 nM, Fig. 3e raw Alpha reads): 1004765 and 1011127; AlphaLISA signal, BCL-xL/PROTAC/VCB ([1]; compound 195.31 nM, Fig. 3e raw Alpha reads): 1443448 and 1418663; AlphaLISA signal, BCL-xL/PROTAC/VCB ([1]; compound 781.25 nM, Fig. 3e raw Alpha reads): 1065855 and 975587; AlphaLISA signal, BCL-xL/PROTAC/VCB ([1]; compound 3125 nM, Fig. 3e raw Alpha reads): 557160 and 572089; AlphaLISA signal, BCL-xL/PROTAC/VCB ([1]; compound 12500 nM, Fig. 3e raw Alpha reads): 200468 and 154034; AlphaLISA signal, BCL-xL/PROTAC/VCB ([1]; compound 50000 nM, Fig. 3e raw Alpha reads, 2 technical replicates): 37331 and 41699 |
|  | 47% | 39.9 nM | 91% | 15802 and 16724 | 18968 and 16877 | 31177 and 28685 | 217997 and 245739 | 796343 and 866530 | 952961 and 938632 | 936762 and 1084189 | 603765 and 595968 | 155340 and 139952 | 73929 and 84434 | 25477 and 29119 | stronger ternary complexes | Cc1ncsc1-c1ccc([C@H](C)NC(=O)[C@@H]2C[C@@H](O)CN2C(=O)[C@@H](NC(=O)CCCCC(=O)N2CCN(CC3(C)CCC(c4ccc(Cl)cc4)=C(CN4CCN(c5ccc(C(=O)NS(=O)(=O)c6ccc(N[C@H](CCN7CCOCC7)CSc7ccccc7)c(S(=O)(=O)C(F)(F)F)c6)cc5)CC4)C3)CC2)C(C)(C)C)cc1 (stereo partly drawn) [PPC6] |  |
| also degraded BCL-2 | 79% | 12.8 nM | 85% | 16342 and 14008 | 13825 and 16199 | 18964 and 20836 | 75292 and 75299 | 594562 and 681817 | 1206651 and 1333081 | 1103207 and 1035637 | 530944 and 584971 | 158302 and 141290 | 39339 and 47417 | 23853 and 20524 | stronger ternary complexes | Cc1ncsc1-c1ccc([C@H](C)NC(=O)[C@@H]2C[C@@H](O)CN2C(=O)[C@@H](NC(=O)CCCCCC(=O)N2CCN(CC3(C)CCC(c4ccc(Cl)cc4)=C(CN4CCN(c5ccc(C(=O)NS(=O)(=O)c6ccc(N[C@H](CCN7CCOCC7)CSc7ccccc7)c(S(=O)(=O)C(F)(F)F)c6)cc5)CC4)C3)CC2)C(C)(C)C)cc1 (stereo partly drawn) [PPC7] | DC50 (BCL-2; 293T cells, four concentrations, 16 h, Fig. 2b, read-out: BCL-2 DC50): 180 nM |
